Assay results reported in patent publication US4526890A, “3,6,7,8-Substituted-s-triazolo[4,3-b]pyridazines as bronchodilators” (The Dow Chemical Company, priority 1981, dated 1985).

Legend:
[1] = test system: histamine-induced bronchoconstriction; assay: Bronchodilator activity in the Konzett-Rossler guinea pig preparation (histamine-induced bronchoconstriction); assay type: in vivo; set-up: key to Histamine Blockade: % blockade = 100 − (post-dose response / mean of 3 prior) × 100; settings: for Histamine Blockade: table 7, intravenous, 3 mg/kg except as otherwise indicated, aminophylline 10 mg/kg
Experimental: Bronchodilator activity of representative triazolopyridazine compounds of the invention is examined in the Konzett-Rossler quinea pig preparation according to accepted procedures. See Knozett and Rossler; Arch. f. Exp. Path. u. Pharmakol. […] Int. Pharmacodyn. […] In this procedure an anesthetized guinea pig is artificially respired with a fixed volume of air. The volume of air is selected to slightly exceed the capacity of the guinea pig's lungs, and the excess air or "overflow" is measured. Test compounds are evaluated by administering a test compound intravenously 2 minutes prior to administration of an agonist compound (histamine, serotonin or acetylcholine) following 3 previous agonist doses resulting in relatively uniform (±10 percent) bronchoconstriction. […] This is calculated by dividing the "overflow" agonist response measured after administration of the test compound by the average of the 3 preceding agonist responses, multiplying by 100 and subtracting this value from 100 percent.

[2] = 30 minute LD50 (acute toxicity without sound); settings: mouse, in vivo, ip
Experimental: (§1) The interaction of sound with the convulsive threshold of drugs is a known phenomenon which can be used to evaluate such side effects. […] In a procedure for pharmacological evaluation, the lowering of the convulsive threshold, or the lowering of the LD50, by sound can be studied in mice.
(§2) In the test operations, mice are administered a test compound by intraperitoneal injection at various dosages, and the number of mice showing tonic convulsions and the number of fatalities occurring within 30 minutes is recorded.

[3] = test system: mice; assay: in vivo; settings: mouse
Experimental: as §1, §2
(§3) The sound exposure is carried out by placing the mice in a sound insulated cage with a bell which emits 120 decibels of sound, and activating the bell for two minutes. The number of tonic convulsions and fatalities are then recorded to determine the ED50 and LD50 in the presence of the sound challenge.

[4] = Audiogenic convulsive side effects (sound challenge: tonic convulsions and fatalities); settings: mouse, ip
Experimental: as §1, §2, §3

[5] = test system: histamine-induced bronchoconstriction; settings: in words; cited from earlier work
[6] = test system: mice; settings: laboratory animals; in words; U.S. Pat. No. 4,136,182; cited from earlier work
[7] = test system: mice; settings: laboratory animals; in words; U.S. Pat. No. 4,136,182; cited from earlier work; remark: listed apart in the source

Row | SMILES | percent blockade of histamine ([1]; 3 mg/kg intravenously, 2 minutes prior to histamine) | Histamine Blockade [1] | LD50 at 0.5 h [2] | audiogenic convulsive threshold / sound-induced toxicity [3] | LD50 ([4]; in vivo) | TD50 [4] | effect on bronchoconstriction [5] | audiogenic convulsions [6] | LD50 (toxicity) [7] | TD50 ([4]; in vivo)
1 | Cc1cc2nnc(C)n2nc1N1CCOCC1 [Example 2, 3,7-dimethyl-6-morpholino-s-triazolo[4,3-b]pyridazine] | 61% | 61 | 228 mg/kg | much less reduction in convulsive threshold | 148 mg/kg | 135 mg/kg | – | – | – | –
2 | Cc1cc(-c2ccccc2)c2nnc(N3CCOCC3)n2n1 [6-methyl-3-(4-morpholinyl)-8-phenyl-s-triazolo[4,3-b]pyridazine] | – | – | – | – | – | – | potentiate bronchoconstriction | – | – | –
3 | c1ccc(-c2nnc3ccc(N4CCOCC4)nn23)cc1 [6-morpholino-3-phenyl-s-triazolo[4,3-b]pyridazine, reference compound] | – | 22 | > 400 mg/kg | – | 30 mg/kg | – | potent bronchodilator | produce audiogenic convulsions in laboratory animals at relatively low dosages | high LD50 (low toxicity) | 5 mg/kg
